# In a melting point compilation (Tetko et al.; mined from patent text by program, amines drawn as free bases though some values may be those of a salt):
row,Structure (SMILES),melting point [°C]
1,CC(Oc1ccc([N+](=O)[O-])cc1F)c1c(Cl)cccc1Cl (configuration not stated),120
2,CCCCCCCCC=CCCCCCCCCCCCC(=O)NC,48 to 49
3,CCOc1ccc(N)cc1OC,54 to 56
4,CCCCCCCCNC(=O)Cc1c(C)cc(C(C)(C)C)c(O)c1C,101 to 104
5,CCCCCCCN(CCCCCSc1nc(-c2ccc(OC)cc2)c(-c2ccc(OC)cc2)[nH]1)c1nc2ccccc2[nH]1,78 to 80
6,CCCCNC(=O)n1c(=S)[nH]c2ccccc21,179 to 180
7,CN1C(=O)C(NC(=O)Nc2cccc([N+](=O)[O-])c2)N=C(c2ccccc2)c2ccccc21 (configuration not stated),288 to 289
8,CCc1cccc(C)c1CNc1cc(Cl)nc(Cl)c1[N+](=O)[O-],118 to 121
9,CCCCCCCCCCCCCCCCOc1ccc(-c2nc(CC(=O)O)c(Oc3ccc(Cl)cc3)o2)cc1,76 to 77
10,Oc1ccc2c(-c3ccc4c(Br)c(O)ccc4c3)noc2c1,275 to 277
11,Cc1cc(C)nc(-c2cccc(-c3ccccc3)n2)n1,117
12,CC(=O)C(C)(N=Nc1ccc(C(O)(C(F)(F)F)C(F)(F)F)cc1)C(N)=O (configuration not stated),148 to 152
13,CCOC(=O)COC1CCC2C3CCC4N(C)C(=O)CCC4(C)C3CCC12C (configuration not stated),39 to 41
14,Cc1cccc(C)c1N1CCN(c2c(C)cccc2C)C1=N,188 to 190
15,CCN(CC)CCNC(=O)Cn1cc(-c2ccccc2)c(-c2ccccc2)n1,80 to 83
16,COC(=O)[C@@H]1C[C@H](OC(=O)c2cc3ccccc3o2)C(=O)[C@H]2[C@@]1(C)CC[C@H]1C(=O)O[C@H](c3ccoc3)C[C@]21C,226 to 227
17,COc1ccc(-c2nc3c(O)cccc3s2)cc1,128 to 130
18,CCc1nc2c(N)nc3cc(-c4ccncc4)ccc3c2n1CC(C)(C)O,> 250
19,O=C(O)CC[C@@H](Cc1cn(CCCc2ccccc2)c2ccccc12)NC(=O)CCCCCCc1ccccc1,100 to 102
20,Cc1ccc(-c2ccccc2CC(N)=NO)cc1,127 to 128
21,CCCCCCOc1ccc2c(CBr)c(OCCCCCC)ccc2c1CBr,110 to 112

row,Structure (SMILES),melting point [°C]
1,Cc1nc2ccc(C(=O)O)[nH]c-2c1Cc1ccc(Cl)cc1Cl,235 to 236
2,CCOC(=O)Cc1c(C)n(Cc2ccccc2)c2ccc(-c3ccccc3)cc12,116 to 119
3,CC(C)c1cc(CC#N)c(C(C)C)cc1C#N,88 to 89
4,NC(=O)CCN1CCC(C(O)(c2ccc(F)cc2)c2ccc(F)cc2)CC1,136 to 137
5,S=C(Nc1cccc(Cl)c1)N1CCSC1=Nc1cccc(Cl)c1,121 to 123
6,Nc1ncnc2c1ncn2OCCCCP(=O)(O)O,265 to 268
7,Cc1nc(/C=C/c2ccccc2)no1,166 to 168
8,CC(=O)Nc1cccc(Nc2ncnc3[nH]cc(C(=O)c4cccc5ccccc45)c23)c1,> 300
9,COc1cc(Nc2nc3cccc(-c4cccnc4)c3o2)cc(OC)c1OC,165 to 170
10,Cc1scc(-c2ccccc2)c1N=C1NCCN1,140 to 141
11,O/N=C(\Sc1ccccc1)C(F)(F)F,64 to 66
12,O=C1c2cc(Cl)c(Cl)cc2-c2cc(O)cc3cccc1c23,355 to 360
13,Cc1ccc(-c2nccc3c(CC(=O)O)cccc23)cc1,223 to 224
14,CCCCCCOc1ccc(-c2ccc(-c3ccc(CCCC)s3)c(F)c2)cc1,66
15,Nc1cc(Br)cc(Br)c1O,175 to 176
16,COc1ccc(-c2nnc3c4ccccc4c(CCl)nn23)cc1,203 to 206
17,CC(C)c1nc(N)c(N)c(=O)[nH]1,198 to 200
18,COc1ccc(CCc2ccc(-c3ccc(OC(F)F)cc3)cc2)cc1,153
19,CCCCC12CCC3C4CCC(=O)C=C4CCC3C1CCC2O (configuration not stated),169 to 170
20,Cc1c(C)c(CC(C)(C)C#N)c(C)c(C)c1CC(C)(C)C#N,187 to 190
21,COc1ccc(COc2cc(Sc3c(Cl)cc(C=O)cc3Cl)ccc2OC)cn1,102 to 104

# Second part, the compound after the results:
row,melting point [°C],Structure (SMILES)
1,211,Cc1c(O)cccc1NC(=O)CC12CC3CC(CC(C3)C1)C2
2,143 to 148,O=C1NCCc2c(Cl)cccc21
3,> 250,O=C1N=NC(=O)c2c1[nH]c1cc(Cl)ccc21
4,228 to 230,COc1ccc(N2CCOCC2)c2sc(-c3ncc[nH]3)nc12
5,218 to 220,Oc1ccc2c(c1)C=C(n1ccnc1)CC2
6,252 to 253,Cn1ccc2cc(N3Cc4ccc(N5CCCC5)cc4C3=O)ccc21
7,147 to 150,Nn1cnn(C2CCc3ccccc3C2)c1=S (configuration not stated)
8,244 to 245,Cc1ccc(C2=C(c3ccc(C)cc3)C(c3ccc(C)cc3)=C(c3ccc(C)cc3)C2=O)cc1
9,150,CONC(=O)Cc1cccc(C(=O)c2ccc(Cl)cc2)c1C
10,52 to 54,CCSC=C1C(=O)OC(C)(C)OC1=O
11,174 to 177,Cc1[nH]c2ccc(/C=C/C(=O)OCc3ccccc3)cc2c1CN(C)C
12,178 to 179,CCCc1c(OC(C)=O)cc2oc3cc(Cl)cn3c(=O)c2c1OC(C)=O
13,166,CCCCc1ccc2nc(Cl)c(S(N)(=O)=O)n2n1
14,222 to 224,CC1=NC(NC(=O)Nc2cccc(C)c2)C(=O)N(CC(=O)N(C)c2ccccn2)c2c(C)cccc21 (configuration not stated)
15,68,COC1CCC(S(=O)(=O)c2ccccc2)O1 (configuration not stated)
16,155,O=C(c1ccc(-c2cc(-c3c[nH]nc3-c3ccccn3)ccn2)cc1)N1CCOCC1
17,222,CC1(C)CCC(C)(C)c2c(OCc3ccc(C(F)(F)F)cc3)cc(C(O)C#Cc3ccc(C(=O)O)cc3)cc21 (configuration not stated)
18,116,COc1ccc([C@@H]2Cc3c(cccc3C(F)(F)F)N(CC3=NCCN3C(=O)OC(C)(C)C)C(=O)[C@@H]2O)cc1
19,109 to 111,COc1ccc(C2CCN(C(=O)/C(=N/O)C(N)=O)CC2)cc1OC1CCCC1
20,216 to 217,CNC(=O)c1ccccc1Nc1nc(Nc2ccc3c(c2)COCCN3C)ncc1Cl

row,melting point [°C],Structure (SMILES)
1,97 to 98,O=C(c1ccc(OCCN2CCCC2)cc1)c1c(-c2ccc(Cl)cc2)sc2ccccc12
2,171 to 172,COc1ccc2cc(S(N)(=O)=O)[nH]c2c1
3,195,CCS(=O)(=O)NNC(=O)NNS(=O)(=O)CC
4,188 to 189,C[Si](C)(C)c1ccc2cc(C(=O)Nc3ccc(N4CC(O)C4)nc3)n(Cc3cccc(F)c3)c2c1
5,84.5 to 86,O=Cc1ccccc1Oc1ccc(I)cc1
6,172 to 174,CC(C)N1C(=O)NC(c2cccnc2)c2cc3c(cc21)OCO3 (configuration not stated)
7,91.9,CCN(C)C(=O)c1ccc(N2CCN(Cc3cnc4c(c3)NC(=O)[C@@H]3CCCN43)CC2)cc1
8,73.5 to 76.2,COc1ccc(CCC(=O)CC(=O)CCc2ccc(OC)cc2)cc1
9,160 to 162,CCN1C(=O)C(C(=O)Nc2ccc(F)cc2)c2cc3c(cc21)CC(C)(C)O3 (configuration not stated)
10,266 to 268,COc1ccc2[nH]c(=O)[nH]c(=O)c2c1OC
11,212 to 214,C=C1CC(COc2cc(=O)oc3ccccc23)(c2ccccc2)OC1=O (configuration not stated)
12,81 to 83,O=C(O)C(CF)=NOCC=Cc1ccccc1
13,56 to 58,CCCCCCCCCCCCCCCCCCOc1cc(OCCCOc2ccc(C(C)(C)C)cc2)cc(N(CC(=O)OC)CC(=O)OC)c1
14,171 to 174,CN(C)Cc1cn(CCC(=O)O)c(=S)n1C1CCc2ccccc2C1 (configuration not stated)
15,162 to 165,COc1ccccc1Oc1ccc([N+](=O)[O-])cc1C(=O)O
16,99 to 100,CCn1cc(CC(=O)O)c(OCCCc2cn(-c3ccc(C(F)(F)F)cn3)nc2C(C)C)n1
17,142 to 145,C=Cc1cnc(C)c(OC(=O)OCC)c1CSC(=O)OCC
18,98 to 101,COc1ccc2c(c1)CCC(c1ccccc1)=C2c1ccccc1
19,97 to 100,O=S(=O)(OS(=O)(=O)C1CCCCC1)C1CCCCC1
20,227,COc1ccc(OCC(O)CN2CCC(Nc3nc4c(C)cccc4n3Cc3nc(C)ccc3O)CC2)cc1 (configuration not stated)

row,melting point [°C],Structure (SMILES)
1,258 to 259,CCNc1nc(NC(C)C)cc(NS(=O)(=O)c2ccc(N)cc2)n1
2,201,Cc1cc(Nc2ccnc(Nc3ccc(S(=O)(=O)N4CCC(CNCCC(=O)N(C)C)CC4)cc3)n2)ccc1F
3,228 to 230,CCc1[nH]n(C2CCCC2)c2nc(-n3ccnc3)nc(=O)c1-2
4,140 to 142,Cc1cccc2c1nc(COc1ccc(Cl)cc1)n2CCC(C)C(=O)N1CCCC1 (racemic)
5,118 to 119,CC(C)C(C)(C(N)=O)N1C(=O)c2ccccc2C1=O (configuration not stated)
6,82 to 85,CNC(=O)c1cc(Oc2ccc(NC(=O)Nc3ccc(Cl)c(C(F)(F)F)c3)cc2)ccn1
7,144 to 146,NC(=O)Cc1cc(Oc2ccc3c(ccn3C(=O)Nc3cc(N4CCOCC4)cc(C(F)(F)F)c3)c2)ncn1
8,116 to 118,NC(=O)c1ccc(OCc2ccccc2)cc1CCN1CCNCC1
9,168 to 170,CCNC(=O)C(C)(C)COc1cccc2nc(C)c(C(=O)O)c(N)c12
10,176 to 178,CCOC(=O)C(C#N)C(=O)c1nn(-c2ccccc2)c2c1CSc1ccccc1-2 (configuration not stated)
11,127 to 128,CCCc1c(O)ccc2c(=O)cc(CCC(=O)OCC)oc12
12,110 to 111,Oc1ccc(C2CCc3ccc(O)cc3O2)cc1 (configuration not stated)
13,320,N#Cc1c(N2CCN(C(=O)c3cccs3)CC2)c2cccnc2[nH]c1=O
14,92 to 93,IC(I)=C(I)Cn1ncnn1
15,109 to 111,COC[C@@H](NC(=O)c1nn(-c2ccc(F)cc2F)c2c1C1CCC2C1)c1ccc(F)cc1 (some centres not stated)
16,149 to 152,CCOC(=O)c1cn(-c2ncns2)c2cc(F)c(F)cc2c1=O
17,120,O=C(c1ccc(-c2cnc3c(c2)N(Cc2ccccc2)CCN3)cc1)N1CCC(N2CCCC2)CC1
18,78 to 80,CCCOCCOc1cccc2oc(C(=O)N3CCN(C)CC3)cc(=O)c12
19,58 to 61,COc1ccc(C(=O)c2ccsc2)cc1
20,82,CCCCc1nc(C(=O)O)c(Sc2ccc(OC)cc2)n1Cc1cc2c(cc1Cl)OCO2
